# Legend:
# [1] = target: T1, human lysosomal β-glucosidase (GCase) (Homo sapiens, UniProt P04062); experiment: GCase inhibition in human leukocyte homogenates; assay type: biochemical; conditions: human leukocytes extracts; for inhibition at 1000 µM / GCase Inhibition (%): compounds 1 mM; for IC50: 4-methylumbelliferyl-β-D-glucoside 3.33 mM
# T1 construct: in leukocytes isolated from healthy donors (controls); endogenous in cells; host or cells: human leukocytes from healthy donors, disrupted by sonication (crude homogenate)
# T1 sequence (P04062 40-536): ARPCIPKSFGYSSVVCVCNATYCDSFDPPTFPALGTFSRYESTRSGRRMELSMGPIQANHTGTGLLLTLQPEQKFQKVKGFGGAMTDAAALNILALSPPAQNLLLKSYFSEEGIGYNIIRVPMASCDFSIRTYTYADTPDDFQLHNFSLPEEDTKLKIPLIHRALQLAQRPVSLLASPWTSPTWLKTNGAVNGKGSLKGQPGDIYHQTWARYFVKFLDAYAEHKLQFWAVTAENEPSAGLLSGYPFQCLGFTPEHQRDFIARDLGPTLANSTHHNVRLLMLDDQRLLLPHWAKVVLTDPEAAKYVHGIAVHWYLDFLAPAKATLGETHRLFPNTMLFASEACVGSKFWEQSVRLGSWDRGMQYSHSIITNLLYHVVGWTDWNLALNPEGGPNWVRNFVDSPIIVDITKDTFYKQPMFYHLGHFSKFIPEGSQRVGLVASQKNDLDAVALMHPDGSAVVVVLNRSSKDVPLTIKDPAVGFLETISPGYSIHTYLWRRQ
# Protocol: The new compounds were screened at 1 mM concentration towards β-galactosidase (β-Gal) and β-glucosidase (GCase) in leukocytes isolated from healthy donors (controls). Isolated leukocytes were disrupted by sonication, and a Micro BCA Protein Assay Kit (Sigma–Aldrich, St. Louis, MO, USA) was used to determine the total protein amount for the enzymatic assay, according to the manufacturer’s instructions.
# GCase activity was measured in a flat-bottomed 96-well plate. Compound solution (3 µL), 4.29 µg/µL leukocytes homogenate (7 µL), and substrate 4-methylumbelliferyl-β-D-glucoside (3.33 mM, 20 µL, Sigma–Aldrich Chemie Gmbh, Munich, Germany)) in citrate/phosphate buffer (0.1:0.2, M/M, pH 5.8) containing sodium taurocholate (0.3%) and Triton X-100 (0.15%) at 37 °C were incubated for 1 h. The reaction was stopped by addition of sodium carbonate (200 µL; 0.5 M, pH 10.7) containing Triton X-100 (0.0025%), and the fluorescence of 4-methylumbelliferone released by β-glucosidase activity was measured in SpectraMax M2 Microplate Reader (λex = 365 nm and λem = 435 nm; Molecular Devices LLC, San Jose, CA, US). Percentage GCase inhibition is given with respect to the control (without compound). Data are mean SD (n = 3). For compounds showing GCase inhibitory activity higher than 80% at 1 mM concentration, the IC50 values were determined by measuring the initial hydrolysis rate with 4-methylumbelliferyl-β-D-glucoside (3.33 mM). Data obtained were fitted by using the appropriate equation (for more details, see the Supplementary Materials).
# IC50 for compounds 9, 10, 12 and 21 towards human lysosomal β-glucosidase The IC50 values of inhibitors against β-glucosidase were determined by measuring the initial hydrolysis rate with 4-methylumbelliferyl-β-D-glucoside (3.33 mM). Data obtained were fitted to the following equation using the Origin Microcal program. where Vi/Vo, represent the ratio between the activity measured in the presence of the inhibitor (Vi) and the activity of the control without the inhibitor (V0), “x” the inhibitor concentration, Max and Min, the maximal and minimal enzymatic activity observed, respectively.
# Figure S48: IC of compound 9 towards GCase
# Figure S49: IC50 of compound 10 towards GCase
# (also on this page, place not known: Min x MinMax Vo Vi slope + […] […] […] […] […] […]+ −= 1 be tween (V i) (V 0), IC50) […]
# [2] = test system: β-glucosidase EC 3.2.1.21; experiment: Commercial glycosidase screening; assay type: biochemical, almonds; conditions: for % Inhibition at 0.1 mM, β-glucosidase almonds: 0.1 mM inhibitor
# Description: A panel of 12 commercial glycosidases (α-L-fucosidase EC 3.2.1.51 from Homo sapiens, α-galactosidase EC 3.2.1.22 from coffee beans, β-galactosidases EC 3.2.1.23 from Escherichia coli and Aspergillus oryzae, α-glucosidases EC 3.2.1.20 from yeast and rice, amyloglucosidase EC 3.2.1.3 from Aspergillus niger, β-glucosidase EC 3.2.1.21 from almonds, α-mannosidase EC 3.2.1.24 from Jack beans, β-mannosidase EC 3.2.1.25 from snail, β-N-acetylglucosaminidases EC 3.2.1.52 from Jack beans and bovine kidney) purchased from Sigma-Aldrich (St. Louis, MO, USA) or Megazyme Ltd. (Bray, Co. Wicklow, Ireland) was screened.
# The percentage (%) of inhibition towards the corresponding glycosidase was determined in quadruplicate in the presence of 100 μM of the inhibitor on the well. Each enzymatic assay (final volume 0.12 mL) contains 0.01–0.5 units/mL of the enzyme (with previous calibration) and 4.2 mM aqueous solution of the appropriate p-nitrophenyl glycopyranoside (substrate) buffered to the optimal pH of the enzyme. Enzyme and inhibitor were preincubated for 5 min at room temperature, and the reaction started by addition of the substrate. After 20 min of incubation at 37 °C, the reaction was stopped by the addition of 0.1 mL of sodium borate solution (pH 9.8). The p-nitrophenolate formed was measured by visible absorption spectroscopy at 405 nm (Asys Expert 96 spectrophotometer, Biochrom Ltd., Cambridge, England). Under these conditions, the p-nitrophenolate released led to optical densities linear with both reaction time and concentration of the enzyme (for more details, see the Supplementary Materials). The IC50 value (concentration of inhibitor required for 50% inhibition of enzyme activity) was determined from plots of % inhibition vs. different inhibitor concentrations. Each point of the graph is the average of four measures. The standard deviation for each point has been also represented in the graph.
Structure (SMILES),inhibition at 1000 µM [1] [%],GCase Inhibition (%) ([1]; listed as C00009),IC50 [1] [µM],GCase Inhibition (%) ([1]; listed as C00010),"% Inhibition at 0.1 mM, β-glucosidase almonds [2]",IC50 ([2]; read-out: IC50 (β-glucosidase from almonds)) [µM],GCase Inhibition (%) ([1]; listed as C00012),GCase Inhibition (%) ([1]; listed as C00016)
"CCCCCCCCCO[C@H]1CNC[C@@H](O)[C@H]1O [compound 9, (3S, 4R, 5R)-4,5-Dihydroxy-3-(Nonyloxy) Piperidine]",> 90,98,12 ± 6,–,–,–,–,–
"CCCCCCCCCCCCN[C@H]1CNC[C@@H](O)[C@H]1O [compound 10, (3R, 4S, 5S)-3,4-Dihydroxy-5-(Dodecylamino) Piperidine]",> 90,–,6.4 ± 0.7,100,51±1%,85,–,–
"CCCCCCCC[C@]1(O)CNC[C@@H](O)[C@H]1O [compound 12, (3S, 4R, 5R)-3,4,5-Trihydroxy-3-Octyl-Piperidine]",> 90,–,60 ± 23,–,- (no inhibition detected),–,93,–
"CCCCCCCCCO[C@@H]1CNC[C@@H](O)[C@H]1O [compound 21, (3R, 4R, 5R)-4,5-Dihydroxy-3-(Nonyloxy) Piperidine]",> 90,–,130 ± 13,–,- (no inhibition detected),–,–,100

# From paper PMC7582770, “Synthesis of “All-Cis” Trihydroxypiperidines from a Carbohydrate-Derived Ketone: Hints for the Design of New β-Gal and GCase Inhibitors” (Molecules, 2020)
